Assay results published in patent US20060264460A1 (Wyeth, priority 2005, published 2006).

Each compound was assayed against T1, human Cot/Tpl2 kinase (Homo sapiens, UniProt P41279) (assay: Tpl2/Cot kinase assay: GST-MEK1 phosphorylation detected by ELISA (DELFIA Eu)). Conditions: Table 2; Tpl2/Cot kinase, GST-MEK1 substrate, 50 uM ATP.
T1 construct: human Cot/Tpl2 kinase construct encoding residues 30-398; 6His (N); made in house; host or cells: Sf9 insect cells, baculovirus system (BD Biosciences)
T1 sequence (P41279 30-398): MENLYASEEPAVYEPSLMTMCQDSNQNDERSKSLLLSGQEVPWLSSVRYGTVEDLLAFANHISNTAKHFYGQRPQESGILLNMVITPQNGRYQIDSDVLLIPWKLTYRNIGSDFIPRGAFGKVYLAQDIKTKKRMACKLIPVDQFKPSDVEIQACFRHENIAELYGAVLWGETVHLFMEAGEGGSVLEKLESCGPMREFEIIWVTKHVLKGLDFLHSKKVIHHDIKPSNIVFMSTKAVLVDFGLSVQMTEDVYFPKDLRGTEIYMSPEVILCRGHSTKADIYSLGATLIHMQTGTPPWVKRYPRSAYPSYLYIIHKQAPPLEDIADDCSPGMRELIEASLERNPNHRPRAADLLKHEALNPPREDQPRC
Type: biochemical
How it was run: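 His-tagged human Tpl2 from Sf9 cells, Ni-affinity and size-exclusion purified (monomer). 0.4 nM Tpl2 with 35 nM GST-MEK1, 50 uM ATP, MOPS pH 7.2, 1% DMSO, 1 h at 30° C; EDTA stop. MEK1 Ser217/221 phosphorylation detected by anti-phospho-MEK1 and Eu-labelled secondary ELISA; IC50 fitted.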

| IC50 [nM] | Structure (SMILES) |
| --- | --- |
| > 10000 | N#Cc1cnc2c(Br)cc([N+](=O)[O-])cc2c1Nc1cccc(Cl)c1 [Example 362] |
| > 40000 | N#Cc1cnc2ccc(N)cc2c1NC1CCN(Cc2ccccc2)CC1 [Example 363] |
| > 10000 | CN1CCC(Nc2ccc3ncc(C#N)c(Nc4ccc(F)c(Cl)c4)c3c2)CC1 [Example 364] |
| 390 | N#Cc1cnc2c(Br)cc(N)cc2c1Nc1cccc(Cl)c1 [Example 365] |
| 25500 | CC(C)N1CCC(Nc2ccc3ncc(C#N)c(Nc4ccc(F)c(Cl)c4)c3c2)CC1 [Example 366] |
| > 40000 | N#Cc1cnc2ccc(NCCN3CCOCC3)cc2c1NC1CCN(Cc2ccccc2)CC1 [Example 367] |
| 640 | CCc1nc(C)c(CNc2ccc3ncc(C#N)c(Nc4ccc(F)c(Cl)c4)c3c2)[nH]1 [Example 369] |
| 3.2 | Cc1c(CNc2ccc3ncc(C#N)c(Nc4ccc(F)c(Cl)c4)c3c2)ncn1C [Example 370] |
| 380 | COCCOc1ccc(CNc2ccc3ncc(C#N)c(Nc4ccc(F)c(Cl)c4)c3c2)cc1Br [Example 371] |
| 420 | N#Cc1cnc2c(Br)cc(NCCN3CCOCC3)cc2c1Nc1cccc(Cl)c1 [Example 372] |
| 14 | Cc1c(CNc2ccc3ncc(C#N)c(Nc4ccc(F)c(Cl)c4)c3c2)ncn1CCN1CCOCC1 [Example 373] |
| 36 | N#Cc1cnc2c(Br)cc(NCc3cccnc3)cc2c1Nc1cccc(Cl)c1 [Example 374] |
| 400 | CN(C)C(=O)c1cc(NCc2cccnc2)cc2c(Nc3cccc(Cl)c3)c(C#N)cnc12 [Example 376] |
| > 40000 | CCN1CCC(Nc2ccc3ncc(C#N)c(Nc4ccc(F)c(Cl)c4)c3c2)C(C)C1 (centres unmarked) [Example 377] |
| 1700 | N#Cc1cnc2ccc(NC3CCN(Cc4ccccc4)CC3)cc2c1Nc1ccc(F)c(Cl)c1 [Example 378] |
| > 40000 | CC(C)(C)OC(=O)N1CCC(Nc2ccc3ncc(C#N)c(Nc4ccc(F)c(Cl)c4)c3c2)CC1 [Example 379] |
| 1100 | COc1cc(NCc2cccnc2)cc2c(Nc3ccc(F)c(Cl)c3)c(C#N)cnc12 [Example 380] |
| > 40000 | CC(C)(C)OC(=O)COc1ccc(CNc2ccc3ncc(C#N)c(Nc4ccc(F)c(Cl)c4)c3c2)cc1Br [Example 381] |
| 74 | N#Cc1cnc2ccc(NCc3cc[nH]n3)cc2c1Nc1ccc(F)c(Cl)c1 [Example 382] |
| 5200 | COc1cc(NCCN2CCOCC2)cc2c(Nc3ccc(F)c(Cl)c3)c(C#N)cnc12 [Example 383] |
| 130 | N#Cc1cnc2ccc(NCc3ccc[n+]([O-])c3)cc2c1Nc1ccc(F)c(Cl)c1 [Example 384] |

| IC50 [nM] | Structure (SMILES) |
| --- | --- |
| 110 | Cc1cc(CNc2ccc3ncc(C#N)c(Nc4ccc(F)c(Cl)c4)c3c2)n[nH]1 [Example 385] |
| > 40000 | COc1cc(NCc2cccnc2)cc2c(Nc3ccc(C)c(O)c3)c(C#N)cnc12 [Example 386] |
| > 40000 | CN(C)Cc1cc(NCCN2CCOCC2)cc2c(Nc3cccc(Br)c3)c(C#N)cnc12 [Example 387] |
| 200 | Cc1ncn(C)c1CNc1ccc2ncc(C#N)c(Nc3ccc(F)c(Cl)c3)c2c1 [Example 388] |
| > 40000 | Cn1cc(Cl)c(CNc2ccc3ncc(C#N)c(Nc4ccc(F)c(Cl)c4)c3c2)n1 [Example 389] |
| 43 | N#Cc1cnc2ccc(N)cc2c1Nc1ccc(Cc2ccccc2)cc1 [Example 390] |
| 26 | N#Cc1cnc2ccc(NCCN3CCOCC3)cc2c1Nc1ccc(Cc2ccccc2)cc1 [Example 391] |
| > 40000 | Cc1cc2ncc(C#N)c(Nc3ccc(F)c(Cl)c3)c2cc1N [Example 392] |
| 520 | N#Cc1cnc2c(Br)cc(N)cc2c1Nc1ccc(F)c(Cl)c1 [Example 393] |
| 5800 | N#Cc1cnc2c(C(F)(F)F)cc(N)cc2c1Nc1ccc(F)c(Cl)c1 [Example 394] |
| > 40000 | CN(C)C(=O)c1cc([N+](=O)[O-])cc2c(Nc3ccc(F)c(Cl)c3)c(C#N)cnc12 [Example 395] |
| 6000 | CN(C)C(=O)c1cc(N)cc2c(Nc3ccc(F)c(Cl)c3)c(C#N)cnc12 [Example 396] |
| 320 | COC(=O)c1cccc(CNc2ccc3ncc(C#N)c(Nc4ccc(F)c(Cl)c4)c3c2)c1 [Example 397] |
| 180 | N#Cc1cnc2ccc(NCc3cccc(C(=O)O)c3)cc2c1Nc1ccc(F)c(Cl)c1 [Example 398] |
| 460 | N#Cc1cnc2ccc(NCc3cccc(C(N)=O)c3)cc2c1Nc1ccc(F)c(Cl)c1 [Example 399] |
| 490 | N#Cc1cnc2ccc(NCc3cnc[nH]3)cc2c1NC1CCCCCC1 [Example 400] |
| 3100 | CC(C)(C)Nc1c(C#N)cnc2ccc(NCc3cnc[nH]3)cc12 [Example 401] |
| > 40000 | N#Cc1cnc2ccc(N)cc2c1NC1CCCC1 [Example 402] |
| 11500 | CC(C)(C)Nc1c(C#N)cnc2ccc(NCc3cccc(C#N)c3)cc12 [Example 403] |
| > 40000 | CC(C)(C)Nc1c(C#N)cnc2ccc(NCc3ccn[nH]3)cc12 [Example 405] |
| 5400 | CC(C)(C)Nc1c(C#N)cnc2ccc(NCc3cccc[n+]3[O-])cc12 [Example 406] |

| IC50 [nM] | Structure (SMILES) |
| --- | --- |
| 5100 | Cn1ccnc1CNc1ccc2ncc(C#N)c(NC(C)(C)C)c2c1 [Example 407] |
| 21900 | CC(C)(C)Nc1c(C#N)cnc2ccc(NCc3ccc(S(N)(=O)=O)cc3)cc12 [Example 408] |
| 920 | N#Cc1cnc2c(Cl)cc(N)cc2c1Nc1ccc(F)c(Cl)c1 [Example 409] |
| 1300 | N#Cc1cnc2ccc(NCc3cccc[n+]3[O-])cc2c1NC1CCCC1 [Example 410] |
| 7300 | N#Cc1cnc2ccc(NCc3ccc(S(N)(=O)=O)cc3)cc2c1NC1CCCC1 [Example 411] |
| 1600 | N#Cc1cnc2ccc(NCc3ccn[nH]3)cc2c1NC1CCCC1 [Example 413] |
| 2900 | CS(=O)(=O)c1cccc(CNc2ccc3ncc(C#N)c(NC4CCCC4)c3c2)c1 [Example 414] |
| 21300 | N#Cc1cnc2ccc(NCc3ccccc3)cc2c1NC1CCCC1 [Example 415] |
| 1700 | N#Cc1ccccc1CNc1ccc2ncc(C#N)c(NC3CCCC3)c2c1 [Example 416] |
| 300 | N#Cc1cnc2ccc(NCc3cnc[nH]3)cc2c1NC1CCCC1 [Example 417] |
| 2600 | N#Cc1cnc2ccc(NCc3cccnc3)cc2c1NC1CCCC1 [Example 418] |
| 19700 | N#Cc1cnc2ccc(NCCN3CCOCC3)cc2c1NC1CCCC1 [Example 419] |
| 2200 | N#Cc1cccc(CNc2ccc3ncc(C#N)c(NC4CCCC4)c3c2)c1 [Example 420] |
| 10600 | N#Cc1cnc2c(O)cc(N)cc2c1Nc1ccc(F)c(Cl)c1 [Example 421] |
| > 40000 | N#Cc1c(Nc2ccc(F)c(Cl)c2)c2cc(NCc3cccc[n+]3[O-])ccc2[nH]c1=O [Example 422] |
| > 40000 | N#Cc1cnc2c(Br)cc(NCc3ccc(OC(F)(F)C(F)F)cc3)cc2c1Nc1ccc(F)c(Cl)c1 [Example 424] |
| > 40000 | Cn1nc(C(C)(C)C)cc1Nc1c(C#N)cnc2ccc(N)cc12 [Example 425] |
| 3.2 | Cn1ccnc1CNc1cc(Cl)c2ncc(C#N)c(Nc3ccc(F)c(Cl)c3)c2c1 [Example 426] |
| 47 | N#Cc1cnc2c(Cl)cc(NCc3cc[nH]n3)cc2c1Nc1ccc(F)c(Cl)c1 [Example 427] |
| > 40000 | N#Cc1cnc2c(Br)cc(NCc3ccc(C(O)(C(F)(F)F)C(F)(F)F)cc3)cc2c1Nc1ccc(F)c(Cl)c1 [Example 428] |
